US20170340698A1, “CYCLIC PEPTIDE SPECIFICALLY BINDING TO APOPTOTIC CELLS AND USE THEREOF” (KYUNGPOOK NATIONAL UNIVERSITY INDUSTRY-ACADEMIC COOPERATION …, priority 2014, published 2017)
Residues, ends and D or L forms follow the SMILES beside them.

Assays:
[1] = test system: SNU-16 stomach tumor xenografts; test: Anti-tumor treatment of mice: tumor volume, tumor weight, TUNEL staining; assay type: in vivo; conditions: cisplatin 5 mg/kg i.p. once per week, cetuximab 1.5 mg/kg i.p. twice per week, two weeks; measured over three weeks
Description: Eight-week old female athymic (nu/nu) Balb/c mice were purchased from Orient laboratories (Seongnam, Korea) and were housed under specific-pathogen-free (SPF) conditions with laboratory chow and water ad libitum. Stomach tumor xenografts were established by subcutaneously injecting 1×10^7 SNU-16 cells in 100 ml saline into the right flank. Tumors were allowed to reach 50-60 mm^3 of volume before randomization and initiation of treatment. […] In the present experiment, a total of two rounds of anticancer drug treatment were conducted for two weeks. Changes in tumor size were measured using an automatic caliper over three weeks. Tumor volumes were calculated using the formula: volume=(length×width×height)/2. Tumor weights were measured after isolation of tumor mass.
To examine anti-tumor growth effect by cisplatin or cetuximab alone and in combination, tumor volumes and weights after the drug treatment were measured.

[2] = Stability of peptides in the serum (C18 reverse phase FPLC, MS); assay type: in vitro ADME, mice; conditions: mouse serum
Description: Peptide stability in the serum was examined by the same method referring to the following documents Yoo S A, Bae D G, Ryoo J W, Kim H R, Park G S, et al. (2005) Arginine-rich antivascular endothelial growth factor (anti-VEGF) hexapeptide inhibits collageninduced arthritis and VEGF-stimulated productions of TNF-alpha and IL-6 by human monocytes. J Immunol 174: 5846-5855. Blood from mice was collected, and then serum was collected by centrifugation at 4[…], followed by filtration through 0.22 um-pore filter. […] The flow rate was 0.3 ml/min, and analyzed by C18 reverse phase FPLC using a linear gradient of 20% from 0 to 100% using acetonitrile through a linear graduation of 20% (Vydac protein and peptide C18, 0.1% trifluoroacetate in water for equilibration, and 0.1% trifluoroacetate in acetonitrile for elution) (Life Technologies, Carlsbad, Calif.). […]
It was examined whether higher levels of imaging signals by the cyclic form of ApoPep-1 compared with those of the linear form of ApoPep-1 was due to the difference in serum stability of peptides. After incubation of the linear or cyclic form of ApoPep-1 with mouse serum up to 24 hours, the amount of the peptide remaining in the serum was analyzed. […]

| Structure (SMILES) | tumor volume compared with control group treated without drug [1] | amount of peptide remaining in the serum (peak area) ([2]; 37 degrees, up to 24 hours) | presence of peptide in serum by MS after incubation ([2]; incubation for 24 hours, MS of FPLC peak) |
| --- | --- | --- | --- |
| N.N.[Cl][Pt][Cl] [cisplatin] | reduced tumor volumes | – | – |
| N=C(N)NCCC[C@H](NC(=O)[C@@H]1CCCN1C(=O)[C@@H]1CCCN1C(=O)[C@H](CCCNC(=N)N)NC(=O)[C@H](CCC(N)=O)NC(=O)[C@@H](N)CS)C(=O)O [linear form of ApoPep-1, CQRPPR, reference compound] (H-CQRPPR-OH; N-terminus and C-terminus assumed) | – | not significantly changed | stably present |
